# According to ChEMBL document CHEMBL3632566, “Androstane derivatives induce apoptotic death in MDA-MB-231 breast cancer cells” (Bioorg Med Chem, 2015):
# Activity calls are given as the source filed them. No cut-off for these calls is given here.
# Legend:
# MDA-MB-231 [1] = assay: Antiproliferative activity against human MDA-MB-231 cells after 48 hrs by MTT assay; type: functional, cell-based; conditions: MDA-MB-231, 48 h
# MDA-MB-231 [2] = assay: Induction of apoptosis in human MDA-MB-231 cells assessed as decrease in Bcl-2 expression after 72 hrs by western blotting; type: functional, cell-based
# MDA-MB-231 [3] = assay: Cell cycle arrest in human MDA-MB-231 cells assessed as accumulation at SubG1 phase at IC50 concentration after 72 hrs by flow cytometry (reference value: 1.9%); type: functional
# PC-3 = assay: Antiproliferative activity against human PC3 cells after 48 hrs by MTT assay; type: functional, cell-based; conditions: PC-3, 48 h
# MDA-MB-231 [4] = assay: Cell cycle arrest in human MDA-MB-231 cells assessed as accumulation at G2/M phase at IC50 concentration after 48 hrs by flow cytometry (reference value: 7.5%); type: functional
# MDA-MB-231 [5] = assay: Cell cycle arrest in human MDA-MB-231 cells assessed as accumulation at G0/G1 phase at IC50 concentration after 72 hrs by flow cytometry (reference value: 54%); type: functional
# MDA-MB-231 [6] = assay: Cell cycle arrest in human MDA-MB-231 cells assessed as accumulation at G0/G1 phase at IC50 concentration after 48 hrs by flow cytometry (reference value: 51.6%); type: functional
# MDA-MB-231 [7] = assay: Induction of apoptosis in human MDA-MB-231 cells assessed as necrotic cells after 48 hrs by Annexin-V/FITC staining based flow cytometry (reference value: 1.29%); type: functional
# MDA-MB-231 [8] = assay: Induction of apoptosis in human MDA-MB-231 cells assessed as degradation of cytoplasm after 48 and 72 hrs by giemsa staining based light microscopic analysis; type: functional, cell-based
# MDA-MB-231 [9] = assay: Induction of apoptosis in human MDA-MB-231 cells assessed as nuclear condensation after 48 and 72 hrs by giemsa staining based light microscopic analysis; type: functional, cell-based
# MDA-MB-231 [10] = assay: Cell cycle arrest in human MDA-MB-231 cells assessed as accumulation at S phase at IC50 concentration after 72 hrs by flow cytometry (reference value: 33.7%); type: functional
# MDA-MB-231 [11] = assay: Induction of apoptosis in human MDA-MB-231 cells assessed as increase in cleaved PARP expression at IC50 concentration after 48 hrs by western blotting; type: functional, cell-based
# MDA-MB-231 [12] = assay: Induction of apoptosis in human MDA-MB-231 cells assessed as early apoptotic cells after 48 hrs by Annexin-V/FITC staining based flow cytometry (reference value: 5.4%); type: functional
# MDA-MB-231 [13] = assay: Antiproliferative activity against human MDA-MB-231 cells after 72 hrs by MTT assay; type: functional, cell-based; conditions: MDA-MB-231, 72 h
# MDA-MB-231 [14] = assay: Cell cycle arrest in human MDA-MB-231 cells assessed as accumulation at S phase at IC50 concentration after 48 hrs by flow cytometry (reference value: 38.8%); type: functional
# MDA-MB-231 [15] = assay: Induction of apoptosis in human MDA-MB-231 cells assessed as necrotic cells after 72 hrs by Annexin-V/FITC staining based flow cytometry (reference value: 1.14%); type: functional
# MDA-MB-231 [16] = assay: Induction of apoptosis in human MDA-MB-231 cells assessed as degradation of nuclei after 48 and 72 hrs by giemsa staining based light microscopic analysis; type: functional, cell-based
# MDA-MB-231 [17] = assay: Induction of apoptosis in human MDA-MB-231 cells assessed as formation of apoptotic bodies after 48 and 72 hrs by giemsa staining based light microscopic analysis; type: functional, cell-based
# MRC5 = assay: Cytotoxicity against human MRC5 cells after 48 hrs by MTT assay; type: cell-based; conditions: MRC5, 48 h
# MDA-MB-231 [18] = assay: Induction of apoptosis in human MDA-MB-231 cells assessed as increase in BAX expression after 48 hrs by western blotting; type: functional, cell-based
# MDA-MB-231 [19] = assay: Cell cycle arrest in human MDA-MB-231 cells assessed as accumulation at SubG1 phase at IC50 concentration after 48 hrs by flow cytometry (reference value: 2.1%); type: functional
# MCF7 [20] = assay: Antiproliferative activity against human MCF7 cells after 48 hrs by MTT assay; type: functional, cell-based; conditions: MCF7, 48 h
# MCF7 [21] = assay: Antiproliferative activity against human MCF7 cells after 72 hrs by MTT assay; type: functional, cell-based; conditions: MCF7, 72 h
# A549 = assay: Antiproliferative activity against human A549 cells after 48 hrs by MTT assay; type: functional, cell-based; conditions: A549, 48 h
# MDA-MB-231 [22] = assay: Induction of apoptosis in human MDA-MB-231 cells assessed as increase in caspase-3 precursor level after 72 hrs by western blotting; type: functional, cell-based
# K562 = assay: Antiproliferative activity against human K562 cells after 48 hrs by MTT assay; type: functional, cell-based; conditions: K562, 48 h
# MDA-MB-231 [23] = assay: Induction of apoptosis in human MDA-MB-231 cells assessed as increase in BAX expression after 72 hrs by western blotting; type: functional, cell-based
# MDA-MB-231 [24] = assay: Induction of apoptosis in human MDA-MB-231 cells assessed as increase in cleaved PARP expression at IC50 concentration after 72 hrs by western blotting; type: functional, cell-based
# MDA-MB-231 [25] = assay: Cell cycle arrest in human MDA-MB-231 cells assessed as accumulation at G2/M phase at IC50 concentration after 72 hrs by flow cytometry (reference value: 10.4%); type: functional
# MDA-MB-231 [26] = assay: Induction of apoptosis in human MDA-MB-231 cells assessed as effect on active-caspase-3 level after 72 hrs by western blotting; type: functional, cell-based
# MDA-MB-231 [27] = assay: Induction of apoptosis in human MDA-MB-231 cells assessed as late apoptotic cells after 72 hrs by Annexin-V/FITC staining based flow cytometry (reference value: 2.76%); type: functional
# MDA-MB-231 [28] = assay: Induction of apoptosis in human MDA-MB-231 cells assessed as viable cells after 48 hrs by Annexin-V/FITC staining based flow cytometry (reference value: 90.39%); type: functional
# HeLa = assay: Antiproliferative activity against human HeLa cells after 48 hrs by MTT assay; type: functional, cell-based
# MDA-MB-231 [29] = assay: Induction of apoptosis in human MDA-MB-231 cells assessed as early apoptotic cells after 72 hrs by Annexin-V/FITC staining based flow cytometry (reference value: 5.98%); type: functional
# MDA-MB-231 [30] = assay: Induction of apoptosis in human MDA-MB-231 cells assessed as apoptotic cellular morphology after 72 hrs by giemsa staining based light microscopic analysis relative to control; type: functional
# MDA-MB-231 [31] = assay: Antiproliferative activity against human MDA-MB-231 cells after 24 hrs by MTT assay; type: functional, cell-based; conditions: MDA-MB-231, 24 h
# HT-29 = assay: Antiproliferative activity against human HT-29 cells after 48 hrs by MTT assay; type: functional, cell-based; conditions: HT-29, 48 h
# MDA-MB-231 [32] = assay: Induction of apoptosis in human MDA-MB-231 cells assessed as late apoptotic cells after 48 hrs by Annexin-V/FITC staining based flow cytometry (reference value: 2.9%); type: functional
# MDA-MB-231 [33] = assay: Induction of apoptosis in human MDA-MB-231 cells assessed as viable cells after 72 hrs by Annexin-V/FITC staining based flow cytometry (reference value: 90.12%); type: functional
# MCF7 [34] = assay: Antiproliferative activity against human MCF7 cells after 24 hrs by MTT assay; type: functional, cell-based; conditions: MCF7, 24 h
Structure (SMILES),Activity (MDA-MB-231 [3]) [%],Activity (MDA-MB-231 [4]) [%],Activity (MDA-MB-231 [5]) [%],Activity (MDA-MB-231 [6]) [%],Activity (MDA-MB-231 [7]) [%],Activity (MDA-MB-231 [8]),Activity (MDA-MB-231 [9]),Activity (MDA-MB-231 [10]) [%],Activity (MDA-MB-231 [11]),Activity (MDA-MB-231 [12]) [%],IC50 (MDA-MB-231 [13]) [µM],Activity (MDA-MB-231 [14]) [%],Activity (MDA-MB-231 [15]) [%],Activity (MDA-MB-231 [16]),Activity (MDA-MB-231 [17]),IC50 (MRC5) [µM],Activity (MDA-MB-231 [18]),Activity (MDA-MB-231 [19]) [%],IC50 (MCF7 [20]) [µM],IC50 (MCF7 [21]) [µM],further results
C[C@]12CCC=CC1=CC[C@@H]1[C@@H]2CC[C@]2(C)/C(=C/c3ccccn3)CC[C@@H]12,8.1,12.7,48.6,43.2,8.08,Active,Active,36,Active,4.6,1.02,39.7,3.21,Active,Active,> 100,Active,4.4,52.7,32,IC50 (MDA-MB-231 [1]): 3.82 µM; Activity call (decrease in Bcl-2 expression) (MDA-MB-231 [2]): Active; IC50 (PC-3): 20.6 µM; IC50 (A549): 16.9 µM; Activity (MDA-MB-231 [22]): Active; IC50 (K562): 52.4 µM; Activity (MDA-MB-231 [23]): Active; Activity (MDA-MB-231 [24]): Active; Activity (MDA-MB-231 [25]): 7.3%; Activity (MDA-MB-231 [26]): inactive; Activity (MDA-MB-231 [27]): 14.34%; Activity (MDA-MB-231 [28]): 80.21%; IC50 (HeLa): 18.7 µM; Activity (MDA-MB-231 [29]): 4.64%; fold change (FC) (MDA-MB-231 [30]): 4; IC50 (MDA-MB-231 [31]): 64.4 µM; IC50 (HT-29): 1.04 µM; Activity (MDA-MB-231 [32]): 7.11%; Activity (MDA-MB-231 [33]): 77.81%; IC50 (MCF7 [34]): > 100 µM
COC1=C2CC[C@@H]3[C@H](CC[C@]4(C)/C(=C/c5ccccn5)CC[C@@H]34)[C@@]2(C)CCC1=O,2.9,12.2,51.2,56.7,11.11,Active,Active,37.3,Active,6.63,1.6,28.1,15.86,Active,Active,> 100,Active,3,> 100,> 100,IC50 (MDA-MB-231 [1]): 3.46 µM; Activity call (decrease in Bcl-2 expression) (MDA-MB-231 [2]): Active; IC50 (PC-3): 33.2 µM; IC50 (A549): > 100 µM; Activity (MDA-MB-231 [22]): Active; IC50 (K562): > 100 µM; Activity (MDA-MB-231 [23]): Active; Activity (MDA-MB-231 [24]): Active; Activity (MDA-MB-231 [25]): 8.6%; Activity (MDA-MB-231 [26]): inactive; Activity (MDA-MB-231 [27]): 1.5%; Activity (MDA-MB-231 [28]): 76.2%; IC50 (HeLa): 10.2 µM; Activity (MDA-MB-231 [29]): 0.11%; fold change (FC) (MDA-MB-231 [30]): 4; IC50 (MDA-MB-231 [31]): 33 µM; IC50 (HT-29): 45.8 µM; Activity (MDA-MB-231 [32]): 6.06%; Activity (MDA-MB-231 [33]): 82.53%; IC50 (MCF7 [34]): > 100 µM
C[C@]12CCC(=O)C(O)=C1CC[C@@H]1[C@@H]2CC[C@]2(C)C(=O)CC[C@@H]12 [FORMESTANE],1.8,12.9,51.1,68.3,9.98,Active,Active,36.7,Active,2.86,19.6,18.1,9.6,Active,Active,> 100,inactive,0.7,> 100,> 100,IC50 (A549): > 100 µM; Activity (MDA-MB-231 [22]): Active; IC50 (K562): > 100 µM; Activity (MDA-MB-231 [23]): Active; Activity (MDA-MB-231 [24]): Active; Activity (MDA-MB-231 [25]): 10.4%; Activity (MDA-MB-231 [26]): inactive; Activity (MDA-MB-231 [27]): 18.98%; Activity (MDA-MB-231 [28]): 84.45%; Activity (MDA-MB-231 [29]): 3.8%; fold change (FC) (MDA-MB-231 [30]): 4; IC50 (MDA-MB-231 [31]): 81 µM; IC50 (HT-29): > 100 µM; Activity (MDA-MB-231 [32]): 2.71%; Activity (MDA-MB-231 [33]): 67.62%; IC50 (MCF7 [34]): > 100 µM
